Assay results from PubChem BioAssay AID623861 (Sanford-Burnham Center for Chemical Genomics, 2012).
Calls of active or inactive are those of the source.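 How the source made its calls: active means compounds whose EC50 for boosting single-cell stem cell survival is at or below a set limit; inactive means the rest.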

Test system: human iPSC single-cell survival, ATP luminescence
Assay: human iPSC survival promotion after dissociation – cell-based, luminescence, dose response (AID 623861)

| SMILES | EC50 |
| --- | --- |
| CCOC(=O)C(=O)/C(=C\N(C)C)c1onc(-c2c(F)cccc2Cl)c1C(=O)OC | > 80 µM (inactive) |
| CC(C)CC1Nc2ncnc(N3CCN(c4ccccc4)CC3)c2N(Cc2ccccc2)C1=O (centres undefined) | > 80 µM (inactive) |
| Cc1nnc2n(C3CCCCC3)c(=O)c3c4c(sc3n12)COC(C)(C)C4 | 38.5 µM (inactive) |
| CC(C)(C)NC(=O)Cn1nnc(-c2ccccc2NC(=O)c2cnccn2)n1 | 10.8 µM |
| CCN1C/C(=C\c2cccc([N+](=O)[O-])c2)C(=O)/C(=C/c2cccc([N+](=O)[O-])c2)C1 | 20 µM |
| Cc1ccc(C(=O)OCc2cc(=O)n3ccsc3n2)s1 | > 80 µM (inactive) |
| CCS(=O)(=O)c1ncc(Cl)c(C(=O)Nc2ccc(S(=O)(=O)N(C)c3ccccc3)cc2)n1 | > 80 µM (inactive) |
| COc1c(Cl)cnn(-c2ccc(C)cc2)c1=O | > 80 µM (inactive) |
| C[C@@H](NC(=O)[C@@H]1Cc2ccccc2CN1)C(=O)Nc1ccc2c(c1)OCO2 | > 80 µM (inactive) |
| Cc1cccc(Cc2c(C)nc3c(C(=O)NCc4ccco4)cnn3c2C)c1 | > 80 µM (inactive) |
| C=C1C(=O)OC2C1CCC(C)=C1C(=O)C3OC3(C)C12 (centres undefined) | > 80 µM (inactive) |
| C=C(C)[C@@]12OC3(c4ccccc4)O[C@@H]1C1[C@@H]4O[C@]4(CO)[C@@H](O)[C@]4(O)C(=O)C(C)=C[C@H]4[C@@]1(O3)[C@H](C)[C@H]2OC(=O)/C=C/C=C/c1ccccc1 (some centres undefined) | < 0.156 µM |
| COc1ccc(N2C(=O)CC(Sc3nccc(C)n3)C2=O)c(OC)c1 (centres undefined) | > 80 µM (inactive) |
| CN1Cc2cnnn2-c2ccccc2C1C#N (centres undefined) | 25.7 µM (inactive) |
| C=C1C(=O)OC2CC(C)C3C=CC(=O)C3(C)C(O)C12 (centres undefined) | 9.47 µM |
| COc1ccc(OC)c(NC(=O)C(CC(C)C)NC(=O)C2CCCCC2)c1 (centres undefined) | > 80 µM (inactive) |
| CCS(=O)(=O)c1ncc(Cl)c(C(=O)Nc2ccc(S(=O)(=O)N3CCCC(C)C3)cc2)n1 (centres undefined) | > 80 µM (inactive) |
| O=C(Nc1nc(-c2ccncc2)cs1)C1COc2ccccc2O1 (centres undefined) | 3.19 µM |
| CCCCCCC[C@@H](C/C=C/CCC(=O)N(C)C/C(=C/Cl)C/C(=C\C(=O)N1CC(OC)=CC1=O)OC)OC | 1.11 µM |
| CCc1c(C(=O)Nc2ccc(OC)cc2)[nH]c(C)c1C(C)=O | > 80 µM (inactive) |
| COCCNC(=O)c1ccc(-c2cn[nH]c2)c2ccoc12 | 11.2 µM |
| COC(=O)c1[nH]c2ccccc2c1NC(=O)CCN1CCSCC1 | > 80 µM (inactive) |
| CC1(C)Cc2c(C#N)c(NCC3CCCO3)nc(-c3ccco3)c2CO1 (centres undefined) | 15.6 µM |

| SMILES | EC50 |
| --- | --- |
| O=C(Cc1ccc(Br)cc1)Nc1ccc2[nH]ncc2c1 | 25.2 µM (inactive) |
| NC(=O)CC(NC(=O)c1ccccc1)C(=O)O (centres undefined) | > 80 µM (inactive) |
| CN1C2CCC1/C(=C/c1ccccn1)C(=O)/C2=C\c1ccccn1 | 6.32 µM |
| CCOCCCNC(=O)/C(C#N)=C/c1ccc([N+](=O)[O-])o1 | 53.1 µM (inactive) |
| COc1ccc2c(c1)c(=O)c(C(=O)c1ccc(Cl)cc1)cn2CC(=O)Nc1ccc(F)cc1 | 15.6 µM |
| O=C(Nc1ccc(N2CCOCC2)cc1)c1cccc(S(=O)(=O)N2CCCC2)c1 | > 80 µM (inactive) |
| CC(Oc1ccccc1)C(=O)Nc1nc(-c2ccncc2)cs1 (centres undefined) | 37.8 µM (inactive) |
| CC1CCN(C(=O)c2[nH]cnc2C(=O)NCC(=O)OC(C)(C)C)CC1 | > 80 µM (inactive) |
| COC(=O)CCSc1cc([N+](=O)[O-])cc2c1c(C1OCCS1)nn2-c1ccccc1 (centres undefined) | 42.7 µM (inactive) |
| COc1ccccc1CC(=O)Nc1ccc(-c2noc(COc3cccc(C)c3C)n2)cc1 | > 80 µM (inactive) |
| CC1CNCCN1S(=O)(=O)c1cccc2cnccc12 (centres undefined) | > 80 µM (inactive) |
| CN(Cc1ccccc1)C(=O)CN1CCN(S(=O)(=O)c2ccccc2F)CC1 | > 80 µM (inactive) |
| Cc1ccc(NS(=O)(=O)c2ccc3c(c2)CC(=O)N3)c(C)c1 | > 80 µM (inactive) |
| N#C/C(=C/c1cccc([N+](=O)[O-])c1)c1nnc2n1CCCCC2 | 7.37 µM |
| CCCc1ccc(C(=O)N2CCN(c3ccccc3OCC)CC2)cc1 | > 80 µM (inactive) |
| Oc1ccc(-c2onc(C(F)(F)F)c2-c2cscn2)c(O)c1 | > 80 µM (inactive) |
| CN(CCOc1ccc(-c2ccn(S(=O)(=O)c3c(Cl)cccc3Cl)n2)cc1)c1ccccn1 | > 80 µM (inactive) |
| Cc1sc(-c2ccccn2)nc1OC(=O)c1ccc(Cl)c(Cl)c1 | > 80 µM (inactive) |
| CCCNC(=O)COC(=O)c1ccccc1C(=O)c1ccc(Cl)c([N+](=O)[O-])c1 | 47.1 µM (inactive) |
| CCC(C(=O)Nc1ccc2[nH]ncc2c1)c1ccccc1 (centres undefined) | 9.45 µM |
| O=C(Nc1ccncc1)c1ccccc1F | 41 µM (inactive) |
| CCn1c(Cl)c(C=O)s/c1=N\S(=O)(=O)c1ccccc1 | 24.8 µM (inactive) |
| COc1ccc(CN(C)CCCn2cnc3c(OC)ncnc32)cc1OC | > 80 µM (inactive) |

| SMILES | EC50 |
| --- | --- |
| O=C(Nc1ccncc1)c1cc(S(=O)(=O)N2CCCC2)ccc1Cl | 20.5 µM (inactive) |
| Cn1c(=O)cc(OCCCC(=O)Nc2cccc(Cl)c2)c2ccccc21 | > 80 µM (inactive) |
| COc1ccc(S(=O)(=O)Nc2ccc3c(c2)C(=O)N([C@H](C)CO)C[C@H](C)[C@@H](CN(C)C(=O)NC2CCCCC2)O3)cc1 | > 80 µM (inactive) |
| CN(C)CCN(C(=O)c1ccc2ccccc2c1)c1nc2cc3c(cc2s1)OCO3 | > 80 µM (inactive) |
| CCOC(=O)c1c(C)nc2sc3c(c2c1-c1ccc(OC)cc1)NC(c1ccccc1)NC3=O (centres undefined) | > 80 µM (inactive) |
| O=C(NC1CCCCC1)N(Cc1nc2ccccc2c(=O)[nH]1)C1CCCCC1 | > 80 µM (inactive) |
| Cn1nc(-c2ccccc2)c(C(O)c2ccccc2C(F)(F)F)c1Cl (centres undefined) | > 80 µM (inactive) |
| C=C1C(=O)O[C@@H]2C[C@@H](C)[C@@H]3C=CC(=O)[C@@]3(C)[C@@H](O)[C@H]12 | 7.88 µM |
| O=C(COc1ccccc1)Nc1nc(-c2ccncc2)cs1 | 15.9 µM |
| O=C(NCC1CC1)c1ccc(-c2cn[nH]c2)c2ccoc12 | 13.1 µM |
| COc1cc(CC(CC(=O)O)CC(C)OCc2ccccc2)cc(OC)c1 (centres undefined) | > 80 µM (inactive) |
| NC(=O)c1ccc(Nc2nc(C(N)c3ccccc3Cl)cs2)cc1 (centres undefined) | 39.7 µM (inactive) |
| CC(OC(=O)c1ccc(S(=O)(=O)N2CCCCC2)cc1)C(=O)Nc1ccc(C(N)=O)cc1 (centres undefined) | 8.72 µM |
| COc1ccccc1Sc1nc(-c2ccccn2)ncc1OC | 40.8 µM (inactive) |
| C[C@@H]1CN([C@@H](C)CO)C(=O)c2cc(Br)cnc2O[C@H]1CN(C)C(=O)C1CC1 | > 80 µM (inactive) |
| c1ccc(CN2CCN(c3nc(NCc4ccco4)c4ccccc4n3)CC2)cc1 | 1.05 µM |
| Cc1ccc(CCN2CC(C(=O)NCCCN3CCCCCC3)CC2=O)cc1 (centres undefined) | > 80 µM (inactive) |
| O=C(Nc1ccncc1)c1ccccc1[N+](=O)[O-] | 52.6 µM (inactive) |
| O=C(NCCCN1CCCCCC1)c1ccc(CS(=O)(=O)Cc2ccccc2F)o1 | > 80 µM (inactive) |
| CC(C)CCNC(=O)c1onc(CSc2ccc(F)cc2)c1C(=O)NCCC(C)C | > 80 µM (inactive) |
| Cc1ccc(OCCN2CCN(c3nc(NCc4ccco4)c4ccccc4n3)CC2)cc1 | 2.81 µM |
| Cc1ccc(NC(=O)/C(=C\c2ccc([N+](=O)[O-])cc2)NC(=O)c2ccccc2)cc1 | > 80 µM (inactive) |
| COc1ccc(C(C#N)(CC(=O)O)c2cnccn2)cc1OC (centres undefined) | > 80 µM (inactive) |
